Measurements taken from US20120021434A1, “METHOD FOR TREATING B CELL REGULATED AUTOIMMUNE DISORDERS” (Synta Pharmaceuticals Corp., priority 2005, published 2012).

Key:
Type in all cases: cell-based
p65 = assay: Nuclear p65 in PMA+ionomycin stimulated Jurkat T cells (immunoblot); details: 100 nM
ICSBP = ICSBP expression (Western blot)
Experimental: The 10% SDS Polyacrylamide gels (Inveitrogen) were transferred to Pure Nitrocellulose membrane (BioRed, Hercules, Calif.). The membranes were blocked with 5% milk in TBST buffer and incubated with anti-c-Rel, anti-p65, anti-p50, anti-ICSBP or anti-PU-1 antibody (all the antibodies were purchased from Santa Cruz) at a dilution of 1:500 for 1 h at room temperature or overnight at 4C. The membranes were washed and incubated with Horseradish Peroxidase-conjugated anti-rabbit IgG or anti-mouse IgG (Amersham, England) at a dilution of 1:2000 at room temperature for 1 h.
Of the transcription factors that have been analyzed, two factors, ICSBP and c-Rel, seem to be affected by Compound 4/Compound 50 treatment. ICSBP binds indirectly to the Ets-2 site. The primary NF-κB trans-activator for IL-12 is the c-Rel/p50 heterodimer. Other dimers (p65/p50 and p50/p50) either lack activity or have inhibitory functions. Thus, c-Rel plays a role in IL-12 transcription as a result of both activation through NF-κB and its interaction with ICSBP. […] The membranes were blocked with 5% milk in TBST buffer and then incubated with anti-c-Rel, anti-p65, anti-p50, anti-ICSBP or anti-PU-1 antibody (all the antibodies were purchased from Santa Cruz) at a dilution of 1:500 for 1 h at room temperature or overnight at 4° C. The membranes were washed and incubated with Horseradish Peroxidase-conjugated anti-rabbit IgG or anti-mouse IgG (Amersham, England) at a dilution of 1:2000 at room temperature for 1 h.
ICSBP, whose expression was reduced by Compound 50, was over-expressed using co-transfection with the IL-12 promoter-Luc report system. The over-expression construct of ICSBP was generated by PCR from cDNA of human PBMC using primers as follow: ICSBP-exp-F: 5′-[…]-3′ (SEQ ID NO:1) and ICSBP-exp-R: 5′-[…]-3′ (SEQ ID NO:2), the resulting PCR products was ligated to pCI vector (Promega).

p52 = p52 nuclear translocation in IFNγ+LPS-stimulated THP1 cells (immunoblot); details: 100 nM, 6 h
Experimental: RelB and p52 are two members of Rel family, which are preferentially complexed with each other. To determine the effect of Compound 50 on p52 and Rel-B nuclear translocation, THP1 cells were stimulated with IFNγ+LPS in either the presence or absence of 100 nM Compound 50 and the distribution of p52 and Rel-B was determined by immunoblotting of nuclear at 6 h post-treatment.

p50 [1] = assay: Western blot of THP-1 nuclear extracts: p50; details: IFN-γ plus LPS or IFN-γ plus SAC, remained above non-stimulated levels
Experimental: The THP-1 cell, Jurkat cell and RAW264.7 cell line were obtained from American Type Culture Collection (Manassas, Va.). The THP-1 Jurkat cells were cultured in RPMI 1640 (ATCC, Manassas, Va.), supplemented with 10% FCS (ATCC, Manassas, Va.), and 1% penicillin/Streptomycin (Gibco-BRL, New York, N.Y.). The RAW264.7 cells were cultured in DMEM (ATCC, Manassas, Va.) supplemented with 10% FCS (ATCC, Manassas, Va.), and 1% penicillin/Streptomycin (Gibco-BRL, New York, N.Y.). The cells were stimulated with human or murine recombinant IFNγ (100 ng/ml) for 10 h followed by LPS (1 μg/ml) or SAC (0.025%) CpG ([…]) in the presence or absence of Compound 50 at different concentrations for an additional incubation.
THP-1 cells were suspended in 20 volumes of buffer A containing 10 mM KCl, 10 mM HEPES (pH 7.9), 1 mM MgCl2, 1 mM dithiothreitol (DTT), 0.1% Nonidet p40 (NP-40), and 0.5 mM phenylmethylsulfonyl fluoride (PMSF) and homogenized and centrifuged at 10,000 rpm at 4C afor 5 min. […]
Of the transcription factors that have been analyzed, two factors, ICSBP and c-Rel, seem to be affected by Compound 4/Compound 50 treatment. […]

p50 [2] = assay: Nuclear p50 in PMA+ionomycin stimulated Jurkat T cells (immunoblot); details: 100 nM

## Cc1cccc(/C=N/Nc2cc(N3CCOCC3)nc(OCCc3ccccn3)n2)c1 [Compound 50, N-(3-Methyl-benzylidene)-N′-[6-morpholin-4-yl-2-(2-pyridin-2-yl-ethoxy)-pyrimidin-4-yl]-hydrazine]
p65
  nuclear p65 levels: unchanged
ICSBP
  ICSBP expression: reduced
ICSBP; of the transcription factors analyzed
  transcription factor ICSBP affected by treatment: affected
p52
  nuclear p52: No significant difference
p50 [1]
  nuclear p50 levels: decreased slightly
p50 [2]
  nuclear levels of p50: slightly reduced
